Experimental findings from patent US4960788A, “Pyrrolidone-2 compounds and their use for central analgesic activity” (priority 1988, dated 1990) are described below.

Where two headings read alike, the source gives them in different places.

The nature of data set [1]: hot plate test on mouse (central analgesic activity). In kind it is in vivo. As to the method:
The compounds object of the present invention were tested in vivo in order to evaluate the central analgesic activity.
The hot plate test was carried out on mouse according to the method described by Eddy et al. (J. Pharmacol., 98, 121, 1950). The compounds were administered by systemic route (oral and subcutaneous). The analgesic activity was expressed as 50% effective dose (ED50).
In table 3 the results obtained for some representative compounds of formula I are reported.
(Hot-plate and tail-flick tests time the reaction to a heat stimulus.)

Data set [2] relates to guinea-pig isolated ileum. Nature of the data set: morphine-like activity on guinea-pig isolated ileum (inhibition of electrically induced contractions). In kind it is cell-based. The note with it: inhibition of 50% of contraction, electric stimulation 0.1 Hz-0.5 msec. Here is the method: The experiments were carried out according to the method described by Goldstein and Schultz (Br. J. Pharmacol., 48, 655, 1975) which is based on the capacity of the molecules showing an agonist activity on opioid receptors to inhibit the contractions of smooth muscles of guinea-pig ileum induced by electric stimulation (0.1 Hz-0.5 msec.).
The pharmacological activity was expressed as the necessary concentration (mM) to inhibit 50% of contraction (IC50).

For data set [3], the target named is T1, opioid receptors (Rattus norvegicus, UniProt P33535).
T1 construct: opioid receptors in rat-brain homogenate; from tissue; host or cells: rat brain (Sprague-Dawley) without cerebellum, homogenate / crude membrane pellet
Nature of the data set: competition for binding of [^3 H]-dihydromorphine (DHM) to opioid receptors in rat-brain homogenate. The note with it: 1 nM ^3 H-DHM; 25° C., 30 minutes; read-out: IC50 for specific binding of ^3 H-DHM to rat-brain homogenate. The arrangement: species or system rat (Sprague-Dawley). As to the method:
(1) Evaluation of the competition for binding of [^3 H]-dihydromorphine(DHM) to opioid receptors in rat-brain homogenate
The experiments were carried out according to the method described by Simon et al. [Proc. Nat. Acad. Sci. U.S.A., 70, pp. 1947-1949, (1973)].
Sprague-Dawley rats weighing about 150 g were used.
The animals were decapitated and, after removal of cerebellum, the brains were homogenized in […] Tris-HCl buffer (pH 7.4) containing 0.32M saccharose. The homogenate was centrifugated at 1000 rpm for 10 minutes and the supranatant was centrifugated again at 20000 rpm for 20 minutes.
The obtained pellet was suspended in a homogenization buffer without saccharose up to a protein concentration of 2 mg/ml. The incubating system consisted in: 500 μl of homogenate (1 mg of proteins), 390 μl of 50 mM Tris-HCl buffer (pH 7.4), 100 μl of a solution at different concentrations of the compounds of formula I or of 10 μM Naloxone for the determination of the aspecific binding and 10 μl of ^3 H-DHM (specific activity […], 1 nM final concentration). The mixture was incubated at 25° C. for 30 minutes after the addition of the radioactive binder.
Then, the samples were filtered through Whatman GF/B filters, washed twice with 3 ml volumes of buffer and dried in oven at 70° C. Filters were put in scintillation vials with 15 ml of Filter Count (Packard) scintillation cocktail and the radioactivity was evaluated by a Packard Tricarb 4530 scintillation counter with 60% efficiency.
The activity was expressed as inhibiting concentration (IC50) 50% of the binding of ^3 H-DHM.

A short description of data set [4]: Jumping test on mouse (capacity to induce physical dependence). The note with it: Naloxone 10 mg/kg i.p. 4 hours after last administration, 15 minutes. In kind it is in vivo. As to the method:
The compounds object of the present invention were tested in vivo in order to evaluate the capacity to induce physical dependence. The Jumping test described by Sealens et al. [Committee on Problems of Drug Dependence, vol. 2, (1971), page 1310] was used.
After 4 hours from the last administration, the animals were treated with Naloxone (10 mg/kg i.p.) and the number of jumps taken by the animals during the period of 15 minutes after the administration of Naloxone was counted.
In table 4, for exemplifying purposes, the percentage of jumping animals obtained for a compound of formula I is reported.

Where [5] appears, read: sc, subcutaneous, mouse hot plate test, read-out: Analgesic activity ED50 (C.L. 95%), s.c.
[6] abbreviates: oral, mouse hot plate test, read-out: Analgesic activity ED50 (C.L. 95%), os.

T1 sequence (P33535 whole entry): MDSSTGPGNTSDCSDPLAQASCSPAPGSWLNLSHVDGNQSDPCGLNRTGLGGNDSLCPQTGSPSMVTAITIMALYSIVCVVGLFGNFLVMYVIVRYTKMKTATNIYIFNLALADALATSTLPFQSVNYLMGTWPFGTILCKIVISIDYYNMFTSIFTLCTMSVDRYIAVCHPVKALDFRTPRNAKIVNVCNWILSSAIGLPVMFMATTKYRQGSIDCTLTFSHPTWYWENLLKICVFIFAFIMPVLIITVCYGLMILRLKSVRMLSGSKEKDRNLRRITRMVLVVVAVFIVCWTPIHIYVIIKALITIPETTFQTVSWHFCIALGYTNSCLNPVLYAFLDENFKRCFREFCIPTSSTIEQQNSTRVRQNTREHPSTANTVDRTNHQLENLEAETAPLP

Broadly, the ED50 is the dose at which the effect has come halfway, by size or by number of responders. By IC50 is commonly meant the midpoint of a concentration-inhibition curve. Turning to `CC[C@@H](C)N(C[C@H](O)[C@@H]1CCC(=O)N1Cc1ccccc1Cl)C(C)C` [Compound 38, (1S)-1-[(5S)-1-[(2-chlorophenyl)methyl]-2-oxo-5-pyrrolidinyl]-2-[[(R)-sec.butyl]isopropylamino]ethanol], in data set [1] (setting [5]), the ED50 came out at 1.1 mg/kg. Moreover, half-maximal inhibition in data set [2] (Cavia porcellus) (IC50) was put at 21.5 nM.

On to `CC[C@@H](C)N(C[C@H](O)[C@@H]1CCC(=O)N1Cc1cc(Br)no1)[C@H](C)CC` [Compound 22, (1S)-1-[(5S)-1-(3-bromo-5-isoxazolylmethyl)-2-oxo-5-pyrrolidinyl]-2-[(2R,2'R)-disec.butylamino]ethanol], for which the ED50 in data set [1] (setting [5]) was 1 mg/kg. Besides, the IC50 worked out at 4.96 nM in data set [2] (Cavia porcellus) and 9.4 nM in data set [3].

`CC[C@@H](C)N(C[C@H](O)[C@H]1CCC(=O)N1Cc1ccccc1Cl)[C@H](C)CC` [Compound 3, (1S)-1-[(5R)-1-[(2-chlorophenyl)methyl]-2-oxo-5-pyrrolidinyl]-2-[(2R,2'R)-disec.butylamino]ethanol] came in with an IC50 in data set [2] (Cavia porcellus) of 4.6 nM.

With `CC[C@@H](C)N(C[C@@H](O)[C@H]1CCC(=O)N1Cc1ccccc1Cl)[C@@H](C)CC` [Compound 12, (1R)-1-[(5R)-1-[(2-chlorophenyl)methyl]-2-oxo-5-pyrrolidinyl]-2-[(2R,2'S)-disec.butylamino]ethanol], the IC50 in data set [2] (Cavia porcellus) was 83 nM.

Regarding `CCC(CC)N(C[C@H](O)[C@@H]1CCC(=O)N1Cc1ccccc1Cl)C(CC)CC` [Compound 40, (1S)-1-[(5S)-1-[(2-chlorophenyl)methyl]-2-oxo-5-pyrrolidinyl]-2-[bis(1-ethylpropyl)amino]ethanol], in data set [2] (Cavia porcellus), 60 nM corresponded to half-maximal inhibition (IC50).

With `CC[C@@H](C)N(C[C@H](O)[C@@H]1CCC(=O)N1Cc1ccccc1Cl)[C@@H](C)CC` [Compound 8, (1S)-1-[(5S)-1-[(2-chlorophenyl)methyl]-2-oxo-5-pyrrolidinyl]-2-[(2R,2'S)-disec.butylamino]ethanol], the ED50 in data set [1] (setting [5]) stood at 1.4 mg/kg. For the same compound, in data set [2] (Cavia porcellus), 44 nM corresponded to half-maximal inhibition (IC50).

For the compound `CC[C@@H](C)N(C[C@H](O)[C@@H]1CCC(=O)N1Cc1ccc(Cl)c(Cl)c1)[C@H](C)CC` [Compound 20, (1S)-1-[(5S)-1-[(3,4-dichlorophenyl)methyl]-2-oxo-5-pyrrolidinyl]-2-[(2R,2'R)-disec.butylamino]ethanol], in data set [1] (setting [5]), the ED50 was 0.28 mg/kg. In data set [2] (Cavia porcellus), this compound registered an IC50 of 0.23 nM.

For the compound `CC[C@@H](C)N(C[C@H](O)[C@@H]1CCC(=O)N1Cc1cccc(C(F)(F)F)c1)[C@H](C)CC` [Compound 24, (1S)-1-[(5S)-2-oxo-1-[(3-trifluoromethylphenyl)methyl]-5-pyrrolidinyl]-2-[(2R,2'R)-disec.butylamino]ethanol], the ED50 in data set [1] (setting [5]) stood at 0.5 mg/kg. For the same compound, the IC50 in data set [2] (Cavia porcellus) was 2.9 nM.

For `O=C1CC[C@@H]([C@@H](O)CN(C2CCCC2)C2CCCC2)N1Cc1ccccc1Cl` [Compound 36, (1S)-1-[(5S)-1-[(2-chlorophenyl)methyl]-2-oxo-5-pyrrolidinyl]-2-dicyclopentylaminoethanol], in data set [1] (setting [5]), the ED50 is 4.7 mg/kg. For the same compound, the IC50 in data set [2] (Cavia porcellus) came to 4.06 nM.

On to `CC(C)N(C[C@H](O)[C@@H]1CCC(=O)N1Cc1ccccc1Cl)C(C)C` [Compound 34, (1S)-1-[(5S)-1-[(2-chlorophenyl)methyl]-2-oxo-5-pyrrolidinyl]-2-diisopropylaminoethanol], for which the IC50 in data set [2] (Cavia porcellus) is 44.7 nM.

For the compound `CC[C@@H](C)N(C[C@H](O)[C@@H]1CCC(=O)N1Cc1ccc(Br)cc1)[C@H](C)CC` [Compound 26, (1S)-1-[(5S)-1-[(4-bromophenyl)methyl]-2-oxo-5-pyrrolidinyl]-2-[(2R,2'R)-disec.butylamino]ethanol], the ED50 in data set [1] (setting [5]) is 0.03 mg/kg. Moreover, in data set [2] (Cavia porcellus), inhibition was half-maximal at 0.04 nM (IC50).

In data set [2] (Cavia porcellus), `CC[C@@H](C)N(C[C@@H](O)[C@@H]1CCC(=O)N1Cc1ccc(Cl)c(Cl)c1)[C@H](C)CC` [Compound 19, (1R)-1-[(5S)-1-[(3,4-dichlorophenyl)methyl]-2-oxo-5-pyrrolidinyl]-2-[(2R,2'R)-disec.butylamino]ethanol] came in with an IC50 of 0.77 nM.

In data set [2] (Cavia porcellus), `CC[C@H](C)N(C[C@@H](O)[C@@H]1CCC(=O)N1Cc1ccccc1Cl)[C@@H](C)CC` [Compound 5, (1R)-1-[(5S)-1-[(2-chlorophenyl)methyl]-2-oxo-5-pyrrolidinyl]-2-[(2S,2'S)-disec.butylamino]ethanol] registered an IC50 of 50 nM.

In data set [2] (Cavia porcellus), `CC[C@@H](C)N(C[C@@H](O)[C@@H]1CCC(=O)N1Cc1ccccc1F)[C@H](C)CC` [Compound 15, (1R)-1-[(5S)-1-[(2-fluorophenyl)methyl]-2-oxo-5-pyrrolidinyl]-2-[(2R,2'R)-disec.butylamino]ethanol] returned an IC50 of 40 nM.

Take `CN1CC[C@]23c4c5ccc(O)c4O[C@H]2[C@@H](O)C=C[C@H]3[C@H]1C5` [morphine, reference compound]: the ED50 in data set [1] (Mus musculus, po, read-out: Analgesic activity ED50 (C.L. 95%), os) was found to be 18 mg/kg; in data set [1] (Mus musculus, sc, read-out: Analgesic activity ED50 (C.L. 95%), s.c.), 3.5 mg/kg. Besides, the “Percentage of jumping animals (total dose 156.0 mg/kg i.p.)” value in data set [4] (total dose 156.0 mg/kg i.p.) came out at 80%.

For `CC[C@@H](C)N(C[C@H](O)[C@@H]1CCC(=O)N1Cc1cccc(OC)c1)[C@H](C)CC` [Compound 18, (1S)-1-[(5S)-1-[(3-methoxyphenyl)methyl]-2-oxo-5-pyrrolidinyl]-2-[(2R,2'R)-disec.butylamino]ethanol], the ED50 in data set [1] (setting [5]) turned out to be 0.07 mg/kg. In data set [2] (Cavia porcellus), this compound displayed an IC50 of 0.28 nM.

Compound `CC[C@@H](C)N(C[C@@H](O)[C@@H]1CCC(=O)N1Cc1ccccc1Cl)[C@@H](C)CC` [Compound 7, (1R)-1-[(5S)-1-[(2-chlorophenyl)methyl]-2-oxo-5-pyrrolidinyl]-2-[(2R,2'S)-disec.butylamino]ethanol] yielded an IC50 in data set [2] (Cavia porcellus) of 70 nM.

Consider `CC[C@@H](C)N(CC(O)C1CCCC(=O)N1Cc1ccccc1Cl)[C@H](C)CC` (stereo partly drawn) [Compound 43, 1-[2-[(2-chlorophenyl)methyl]-2-oxo-6-piperidinyl]-2-[(2R,2'R)-disec.butylamino]ethanol], for which the “Analgesic activity ED50 (C.L. 95%), s.c.” value in data set [1] (subcutaneous, mouse hot plate test) amounted to 0.1 mg/kg. For the same compound, in data set [2], the IC50 is 0.5 nM.

Consider `CC[C@@H](C)N(C[C@H](O)[C@@H]1CCC(=O)N1Cc1ccccc1Cl)[C@H](C)CC` [Compound 1, (1S)-1-[(5S)-1-[(2-chlorophenyl)methyl]-2-oxo-5-pyrrolidinyl]-2-[(2R,2'R)-disec.butylamino]ethanol], for which the ED50 came to 2.6 mg/kg in data set [1] (setting [6]) and 0.011 mg/kg in data set [1] (setting [5]). Besides, the figures for the IC50 in data set [2] (Cavia porcellus) and in data set [3] were 0.03 nM and 0.9 nM, respectively. Besides, the “Percentage of jumping animals (total dose 3.8 mg/kg i.p.)” value in data set [4] (total dose 3.8 mg/kg i.p.) is given as 5%.

For `CC[C@@H](C)N(C[C@H](O)[C@@H]1CCC(=O)N1Cc1ccccc1F)[C@H](C)CC` [Compound 16, (1S)-1-[(5S)-1-[(2-fluorophenyl)methyl]-2-oxo-5-pyrrolidinyl]-2-[(2R,2'R)-disec.butylamino]ethanol], the ED50 in data set [1] (setting [6]) is 5.8 mg/kg; in data set [1] (setting [5]) it was 0.03 mg/kg. Besides, the IC50 in data set [2] (Cavia porcellus) is 0.29 nM; in data set [3], 2.5 nM.

Turning to `CC[C@@H](C)N(C[C@@H](O)[C@H]1CCC(=O)N1Cc1ccccc1Cl)[C@H](C)CC` [Compound 4, (1R)-1-[(5R)-1-[(2-chlorophenyl)methyl]-2-oxo-5-pyrrolidinyl]-2-[(2R,2'R)-disec.butylamino]ethanol], the ED50 in data set [1] (setting [5]) was determined as 3.8 mg/kg. For the same compound, the IC50 in data set [2] (Cavia porcellus) amounted to 8.7 nM.

On to `CC[C@@H](C)N(C[C@H](O)[C@@H]1CCC(=O)N1Cc1ccccc1)[C@H](C)CC` [Compound 14, (1S)-1-[(5S)-2-oxo-1-(phenylmethyl)-5-pyrrolidinyl]-2-[(2R,2'R)-disec.butylamino]ethanol], for which the ED50 worked out at 6.5 mg/kg in data set [1] (setting [6]) and 0.04 mg/kg in data set [1] (setting [5]). Moreover, the figures for the IC50 in data set [2] (Cavia porcellus) and in data set [3] were 0.43 nM and 3.3 nM, respectively.
